Assay results: US11484479B2, “Formulation for the elimination of cariogenic and opportunistic pathogens within the oral cavity” (Research Institute at Nationwide Children's Hospital, priority 2015, dated 2022)

Tests used:
S. mutans = assay: Toxic cargo DM assay; type: cell-based, Streptococcus mutans; conditions: monoculture, 1 min; CHX 0.033% and H2O2 0.25% final concentration, no DM (FIG. 8A left)
Procedure: (§1) DM was hydrated in THB only (control) or THB containing either hydrogen peroxide (1.5%) or chlorhexidine (0.2%) to create a 10% (w/v) slurry. For Applicant's DM assays, 250 μl of hydrated DM G25 superfine (125 μl final volume; 12.5 mg) was added to a Micro Bio-Spin chromatography column (BioRad, Hercules, Calif.) and excess liquid was removed by centrifugation at 100×g for 30 seconds, leaving DM with toxic cargo in the lumen. 125 μl of THB (the same volume of excess toxic cargo removed by filtration) was added to the DM column to create a 10% slurry (w/v), followed by the immediate addition of 500 μl of culture as described above for Applicant's basic DM assay. For control assays containing no DM, 125 μl of THB or THB containing toxic cargo (the same volume that is present in the DM lumen) was added to the spin column containing 125 THB followed by the addition of 500 μl of culture as described above for Applicant's basic DM assay. After incubation for 1 minute at RT, the cell/DM mixture was centrifuged for 1 minute at 100×g. The flow-through was serial diluted in PBS, and serial dilutions were plated onto THB (S. gordonii) or THB containing 1.5 μg/ml erythromycin (S. mutans) or LB (E. coli) agar and incubated at 37° C.+5% CO2. […]

S. gordonii = assay: Toxic cargo DM assay; type: cell-based, Streptococcus gordonii; conditions: monoculture, 1 min; CHX 0.033% and H2O2 0.25% final concentration, no DM (FIG. 8A left)
Procedure: as §1

SMILES | Total viable S. mutans after antimicrobial alone (no DM) (S. mutans) | Total viable S. gordonii after antimicrobial alone (no DM) (S. gordonii)
OO [H2O2, hydrogen peroxide] | decreased the amount of total viable S. mutans and S. gordonii | decreased the amount of total viable S. mutans and S. gordonii
[H]/N=C(\N/C(=N/[H])NCCCCCCNC(=N)NC(=N)Nc1ccc(Cl)cc1)Nc1ccc(Cl)cc1 [CHX, chlorhexidine] | decreased the amount of total viable S. mutans and S. gordonii | decreased the amount of total viable S. mutans and S. gordonii
